Data from patent US5707821A, “Identification of phospholipase A2 inhibitors in Aβ peptide-mediated neurodegenerative disease” (priority 1995, dated 1998).

Experiments:
[1] = test system: human cortical neurons; assay: Aβ neurotoxicity in human cortical neurons (alamarBlue), 2 h pretreatment with inhibitor; assay type: cell-based; conditions: Homo sapiens, Cortical neurone, 72 h, read-out: Max Inh
Description: (§1) Cultures of human cortical or hippocampal neurons were prepared using a modification of the procedure described in P. Seubert et al. (1992), Nature 359:325-327. Cortical or hippocampal tissue was dissociated by incubation in a trypsin/EDTA solution (0.05% trypsin +0.53 mM EDTA in HBSS; Gibco) for 20 minutes at 37° C. The trypsin was then inactivated by resuspending the cells in serum-containing medium (MEM/FBS): Modified Eagle's Medium (MEM) containing 1% glucose, 1 mM sodium pyruvate, 1 mM glutamine, and supplemented with 10% fetal bovine serum (Gibco). Cells were then pelleted by centrifugation and resuspended in a chemically-defined medium (MEM/B27): MEM containing B27 supplement (Gibco) in place of FBS. Polyethyleneimine (PEI)-coated 6.4-mm (96-well) dishes were rinsed once with MEM/FBS, and then seeded at 0.75-1.25×10^5 cells per well in 0.1 ml MEM/B27. Cultures were maintained in a H2 O-saturated incubator with an atmosphere of 95% air/5% CO2 at 37° C. The culture medium was exchanged twice weekly.
(§2) Amyloid-β (Aβ) stock solutions were prepared as 1 mM stocks in sterile ddH2 O immediately prior to addition to cultures. Rat cortical neurons were exposed to Aβ by removing the culture medium and replacing it with DMEM/N2 or DMEM/B27 containing Aβ1-40. Human cortical neurons were exposed to Aβ by removing the culture medium and replacing it with MEM, MEM/N2, or MEM/B27 containing Aβ1-40. Cultures were maintained for 2-4 days before neuronal survival was quantified using alamarBlue™.
(§3) The alamarBlue™ assay incorporated a proprietary fluorometric/colorimetric metabolic indicator (Alamar Biosciences, Inc.). Viable cells convert alamarBlue™ from an oxidized (non-fluorescent, blue) form to a reduced (fluorescent, red) form. Assays were performed by replacing the culture media with a 10% alamarBlue™ solution in DMEM (rat cortical cultures) or MEM (human cortical cultures). Reduction of alamarBlue™ was determined spectrofluorometrically using a Millipore Cytofluor 2350 Scanner (excitation, […]; emission, 590 nm) and CytoCalc™ software (Millipore Corporation).
The effect of pretreating human cortical neuron cultures with the benzenesulfonamide PLA2 inhibitors and arachidonyl trifluoromethyl ketone prior to exposure to a neurotoxic concentration of Aβ1-40 was determined.
(§4) Human cortical neurons were treated with 50 μM Aβ1-40 and various inhibitors of PLA2. Compounds were added 2 hours prior to Aβ1-40 treatment at concentrations of 390 nM to 100 μM, and were then re-added at the time of Aβ1-40 treatment. Compounds were also added in an identical manner to neuronal cultures in the absence of Aβ1-40. Neuronal survival was determined after 3 days of treatment by alamarBlue®. IC50 is the dose of compound that inhibited Aβ-mediated neurotoxicity by 50%. […] Data represents the mean ± SD (n=3). ND, not detected at the concentration range used.

[2] = test system: human cortical neurons; assay: Compound toxicity to human cortical neurons in absence of Aβ1-40, added as in pretreatment protocol; assay type: cell-based; conditions: no Aβ1-40, 3 days, n=3
Description: as §1, §3, §4

[3] = as above; assay type: cell-based; conditions: human, cortical neurons, no Aβ1-40, 3 days, n=3, ND = not detected at the concentration range used, read-out: TD50 (concentration giving 50% loss of neuronal survival)
Description: as §1, §3, §4

[4] = test system: human cortical neurons; assay: Aβ neurotoxicity / survival of human cortical neurons (alamarBlue), compound added at time of Aβ1-40; assay type: cell-based; conditions: for Max Inh: 50 μM Aβ1-40, compound 390 nM to 100 μM added at time of Aβ, 3 days, n=3
Description: as §1, §2, §3
The effect of the two benzenesulfonamide inhibitors of PLA2 in Example 2 were examined to determine the dose-dependence of their effect on neuronal survival in human cortical neuron cultures exposed to 0 μM, 25μM, or 50 μM of Aβ1-40 and varying doses of the benzenesulfonamide.
as §4, with “PLA2 or PLC.” for “PLA2.”, “added” for “added 2 hours prior to Aβ1-40 treatment at concentrations of 390 nM to 100 μM, and were then re-added”, “treatment at concentrations 390 nM to 100 μM.” for “treatment.”, “added” for “added in an identical manner”

[5] = test system: human cortical neurons; assay: Compound toxicity to human cortical neurons in absence of Aβ1-40 (alamarBlue, 3 days); assay type: cell-based
Description: as §1, §3
as §4, with “PLA2 or PLC.” for “PLA2.”, “added” for “added 2 hours prior to Aβ1-40 treatment at concentrations of 390 nM to 100 μM, and were then re-added”, “treatment at concentrations 390 nM to 100 μM.” for “treatment.”, “added” for “added in an identical manner”

[6] = as above; assay type: cell-based; conditions: human, cortical neurons
Description: as §1, §3
as §4, with “PLA2 or PLC.” for “PLA2.”, “added” for “added 2 hours prior to Aβ1-40 treatment at concentrations of 390 nM to 100 μM, and were then re-added”, “treatment at concentrations 390 nM to 100 μM.” for “treatment.”, “added” for “added in an identical manner”

[7] = test system: PLC (phosphatidyl choline-phospholipase C); conditions: literature; cited from earlier work
[8] = test system: PLA2; conditions: literature; cited from earlier work
[9] = test system: AD patients; conditions: selected group of five AD patients; cited from earlier work

Row | Structure (SMILES) | Emax [1] [%] | TD10 (concentration giving 10% loss of neuronal survival) [2] [µM] | CC50 at 72 h [3] [µM] | Max Inh [4] [%] | inhibition of PLC [7] | other results
1 | CC1=C(CC/C(C)=C/CCC2=CC[C@H](C3=CC(=O)O[C@H]3O)O[C@H]2O)C(C)(C)CCC1 [Manoalide] | 49 | 8 | 10 | – | – | –
2 | O=C(CBr)c1ccc(Br)cc1 [p-Bromophenacyl Bromide] | 39 | 8 | 10 | – | – | –
3 | S=C(S)OC1CC2CC1C1CCCC21 (stereo not shown) [AN20602, potassium 8(9)-tricyclo[5.2.1.0^2,6]decyl xanthate] | – | – | – | 25 | PLC inhibitor | enhancing neuronal survival after exposure to Aβ (in words) ([4]; Example 5, FIG. 5, three days): relatively ineffective in enhancing neuronal survival; TD10 (concentration giving 10% loss of neuronal survival) ([5]; human, 4320 min): 13 µM; CC50 at 72 h [6]: 35 µM
4 | COc1ccc2c(c1)CC[C@@H]1[C@@H]2CC[C@]2(C)[C@@H](NCCCCCCN3C(=O)C=CC3=O)CC[C@@H]12 [U73122, 1-[6-[[(17β)-3-methoxyestra-1,3,5(10)-trien-17-yl]amino]hexyl]-1H-pyrrole-2,5-dione] | – | – | – | 66 | inhibits both PLA2 and PLC | IC50 ([4]; Homo sapiens, Cortical neurone, 72 h, read-out: IC50 (dose that inhibited Aβ-mediated neurotoxicity by 50%)): 9 µM; TD10 (concentration giving 10% loss of neuronal survival) ([5]; no Aβ1-40, 3 days, 390 nM to 100 μM, n=3): 11 µM; CC50 at 72 h ([6]; no Aβ1-40, 3 days, 390 nM to 100 μM, n=3, ND = not detected at the concentration range used, read-out: TD50 (concentration giving 50% loss of neuronal survival)): 16 µM; inhibition of PLA2 [8]: inhibits both PLA2 and PLC
5 | COc1ccc2c(c1)c(CC(=O)O)c(C)n2C(=O)c1ccc(Cl)cc1 [indomethacin] | – | – | – | – | – | effects on neuropathological progression [9]: no effects on neuropathological progression were noted; reducing symptomatic progression in AD patients [9]: allegedly useful in reducing symptomatic progression
